Test results from patent US20230192699A1, “COMPOUNDS AS CASEIN KINASE INHIBITORS” (GRITSCIENCE BIOPHARMACEUTICALS CO., LTD., priority 2020, published 2023).

What was measured:
[1] = tested on: MDA-MB-231 cells; test: Cell proliferation assay (crystal violet); format: cell-based; details: various concentrations, 72 hours
Protocol: MDA-MB-231 cells treated with a compound of the present application (e.g., compound 1-1, 2-5, 1-14 and 3-8, respectively) were seeded at a density of 5×10^4cells/well in 12-well plate and incubated at 37° C. with 5% CO2. After 72 hours of culturing, the cells were washed with PBS, fixed in 4% formaldehyde for 15 minutes and stained with 0.1% crystal violet for 20 minutes. Cells were washed with water and the staining was extracted with 10% acetic acid for 20 minutes and absorbance was measured at 590 nm. The experiments were performed in triplicates.

[2] = tested on: MDA-MB-231 cells (breast cancer cells); test: Transwell cell migration assay; format: cell-based; details: MDA-MB-231, 24 h; for relative migration (%) of cells: FIG. 61; for migrated cells: FIGS. 62-67
Protocol: MDA-MB-231 cells (breast cancer cells) were starved in 0.5% serum-DMEM for 8 hours. For the migration assay, a total of 5×10^4cells were suspended in 500 μL of serum-free DMEM medium and seeded into the upper chamber of a […] pore size insert. Then, 750 μL of DMEM (containing 10% FBS) with or without the compound of the present application was added to the lower compartment. After incubation at 37° C. for 24 h, migrated cells were washed with PBS, fixed in 4% PFA and stained for 30 min in crystal violet solution (0.1% crystal violet). […] Each insert was photographed in 3 random fields at a magnification of 40×.

[3] = target: wild type CK1δ (Homo sapiens, UniProt P48730); test: CK1δ kinase assay (Kinase-Glo); format: biochemical; details: 10 μM ATP, 2 nM wild type CK1δ, 85 min at 25° C.; read-out: CK1δ inhibition (IC50)
Protocol: The CK1δ kinase assay was performed with a buffer (40 μL, pH 7.5) containing 50 mM Tris, 10 mM MgCl2, 1 mM dithiothreitol, 100 μg/mL BSA with 10 μM ATP, 2 nM wild type CK1δ, and 42 μM peptide substrate PLSRTLpSVASLPGL (Flotow et al., 1990) in the presence of 1 μL of a CK1δ inhibitor (e.g., a compound of the present application) or 4% DMSO (e.g., as control). The reaction mixture was incubated for 85 min at 25° C.; detection was carried out as described for the Kinase-Glo Assay (Promega). Luminescent output was measured on the Perkin Elmer Envision plate reader (PerkinElmer, Waltham, Mass.).

[4] = Assay of drug transport in Caco-2 cells; details: human, Caco-2, pH 7.4
Protocol: 1) 50 μL and 25 mL of cell culture medium were added to each well of the Transwell insert and reservoir, respectively. And then the HTS transwell plates were incubated at 37° C., 5% CO2 for 1 hour before cell seeding.
2) Caco-2 cells were diluted to 6. 86×10^5 cells/mL with culture medium and 50 μL of cell suspension were dispensed into the filter well of the 96-well HTS Transwell plate. Cells were cultivated for 14-18 days in a cell culture incubator at 37° C., 5% CO2, 95% relative humidity. Cell culture medium was replaced every other day, beginning no later than 24 hours after initial plating.
10 mM stock solutions of test compounds were prepared in DMSO. The stock solutions of positive controls were prepared in DMSO at the concentration of 10 mM. Digoxin and propranolol were used as control compounds in this assay.
1) Medium was removed from the reservoir and each Transwell insert and replaced with prewarmed fresh culture medium.
2) Transepithelial electrical resistance (TEER) across the monolayer was measured using Millicell Epithelial Volt-Ohm measuring system (Millipore, USA).
The TEER value was calculated according to the following equation: TEER measurement (ohms) * Area of membrane (cm^2)=TEER value (ohm·cm^2) TEER value should be greater than 230 ohm·cm^2, which indicates the well-qualified Caco-2 monolayer.
1) The Caco-2 plate was removed from the incubator and washed twice with pre-warmed HMS (10 mM HEPES, pH 7.4), and then incubated at 37° C. for 30 minutes.
2) The stock solutions of control compounds and test compounds were diluted in DMSO to get 1 mM solutions and then diluted with HMS (10 mM HEPES, pH 7.4) get 5 μM working solutions. The final concentration of DMSO in the incubation system was 0.5%.
3) To determine the rate of drug transport in the apical to basolateral direction. 125 μL of 5 μM working solution of control compound and test compounds were added to the Transwell insert (apical compartment), and transfer 50 μL sample (D0 sample) immediately from the apical compartment to a new 96-well plate. Fill the wells in the receiver plate (basolateral compartment) with 235 μL of MSS (10 mM HEPES, pH 7.4).
4) To determine the rate of drug transport in the basolateral to apical direction. 285 μL of 5 μM working solution of control compound and test compounds were to the receiver plate wells (basolateral compartment), and transfer 50 μL sample (D0 sample) immediately from the basolateral compartment to a new 96-well plate. Fill the wells in the Transwell insert (apical compartment) with 75 μL of MSS (10 mM HEPES, pH 7.4). The assay was performed in duplicate.
5) The plates were incubated at 37° C. for 2 hours.
6) At the end of the incubation, 50 μL samples from donor sides (apical compartment for Ap→Bl flux, and basolateral compartment for Bl→Ap) and receiver sides (basolateral compartment for Ap→Bl flux, and apical compartment for Bl→Ap) were transferred to wells of a new 96-well plate, followed by the addition of 4 volume of cold methanol containing appropriate internal standards (IS). Samples were Vortexed for 5 minutes and then centrifuged at 3,220 g for 40 minutes. An aliquot of 100 μL of the supernatant was mixed with an appropriate volume of ultra-pure water before LC-MS/MS analysis.
7) To determine the Lucifer Yellow leakage after 2-hour transport period, stock solution of Lucifer yellow was prepared in water and diluted with HMS (10 mM HEPES, pH 7.4) to reach the final concentration of 100 μM. 100 μL of the Lucifer yellow solution was added to each Transwell insert (apical compartment), followed by filling the wells in the receiver plate (basolateral compartment) with 300 μL of HBSS (10 mM HEPES, pH 7.4). The plates were Incubated at 37° C. for 30 mins. 80 μL samples were removed directly from the apical and basolateral wells (using the basolateral access holes) and transferred to wells of new 96 wells plates.

[5] = Assay of intrinsic clearance in liver microsomes (human); format: in vitro ADME; details: Human liver microsomes 0.5 mg/mL, 2 μM compound, 37° C.; for microsomal CLint at 2 μM: read-out: in vitro CLint (μL/min/mg protein); for half-life at 2 μM: read-out: in vitro t1/2
Protocol: (§1) 1. The master solution was prepared according to Table 11.
(§2) 2. Three separated experiments were performed as follows. a) With NADPH: 10 μL of 20 mg/mL liver microsomes and 40 μL of 10 mM NADPH were added to the incubations. The final concentrations of microsomes and NADPH were 0.5 mg/mL and 1 mM, respectively. b) Without NADPH: 10 μL of 20 mg/mL liver microsomes and 40 μL of ultra-pure H2O were added to the incubations. The final concentration of microsomes was 0.5 mg/mL. c) Heat-inactivated microsomes without NADPH: 10 μL of 20 mg/mL heat-inactivated liver microsomes and 40 μL of ultra-pure H2O were added to the incubations. The final concentration of microsomes was 0.5 mg/mL.
(§3) 3. The reaction was started with the addition of 4 μL of 200 μM test compound solution or control compound solution at the final concentration of 2 μM and carried out at 37° C.
(§4) 4. Aliquots of 50 μL were taken from the reaction solution at 0, 15, 30, 45 and 60 min. The reaction was stopped by the addition of 4 volumes of cold acetonitrile with IS (100 nM alprazolam, 200 nM labetalol, 200 nM caffeine and 2 μM ketoprofen). Samples were centrifuged at 3, 220 g for 40 minutes.
(§5) Peak areas were determined from extracted ion chromatograms. The slope value, k, was determined by linear regression of the natural logarithm of the remaining percentage of the parent drug vs. incubation time curve.
(§6) The in vitro half-life (in vitro t1/2) was determined from the slope value:
(§7) Conversion of the in vitro t1/2 (min) into the in vitro intrinsic clearance (in vitro CLint, in μL/min/mg protein) was done using the following equation (mean of duplicate determinations):
(§8) in vitro CLint=(0.693 * volume of incubation(μl))/(in vitro t1/2 * amount of proteins(mg))

[6] = Assay of intrinsic clearance in liver microsomes (mouse); format: in vitro ADME; details: Mouse liver microsomes 0.5 mg/mL, 2 μM compound, 37° C.; for microsomal CLint at 2 μM: read-out: in vitro CLint (μL/min/mg protein); for half-life at 2 μM: read-out: in vitro t1/2
Protocol: as §1, §2, §3, §4, §5, §6, §7, §8

Sequence of wild type CK1δ (P48730 whole entry): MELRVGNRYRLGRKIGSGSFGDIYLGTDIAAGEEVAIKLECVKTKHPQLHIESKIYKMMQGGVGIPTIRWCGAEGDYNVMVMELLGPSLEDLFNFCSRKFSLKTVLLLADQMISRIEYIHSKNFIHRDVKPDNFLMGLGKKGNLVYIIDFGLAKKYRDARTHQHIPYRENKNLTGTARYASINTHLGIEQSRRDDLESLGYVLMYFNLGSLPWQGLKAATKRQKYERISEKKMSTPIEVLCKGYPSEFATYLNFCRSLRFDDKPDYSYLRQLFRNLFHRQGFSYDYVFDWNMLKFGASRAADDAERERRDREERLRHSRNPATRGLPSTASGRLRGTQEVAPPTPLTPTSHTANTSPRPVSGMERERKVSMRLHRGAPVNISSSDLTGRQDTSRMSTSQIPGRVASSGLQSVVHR

SMILES	IC50 [3] [nM]	efflux ratio at 2 h, 5 μM [4]	microsomal CLint at 2 μM [5] [µL/min/mg]	half-life at 2 μM [5] [min]	microsomal CLint at 2 μM [6] [µL/min/mg]	half-life at 2 μM [6] [min]	other results
Nc1nccc(-c2c(-c3ccc(F)cc3)nc3cnccn23)n1 [Compound 1-1, 4-(2-(4-fluorophenyl)imidazo[1,2-a]pyrazin-3-yl)pyrimidin-2-amine]	–	–	–	–	–	–	relative proliferation (%) of cells [1]: affected in a concentration dependent manner; relative migration (%) of cells [2]: reduced; migrated cells [2]: suppressed the migration
C[C@H]1O[C@@H](O[C@H]2[C@@H](O)C[C@H](O[C@H]3[C@@H](O)C[C@H](O[C@H]4CC[C@@]5(C)[C@H](CC[C@@H]6[C@@H]5C[C@@H](O)[C@]5(C)[C@@H](C7=CC(=O)OC7)CC[C@]65O)C4)O[C@@H]3C)O[C@@H]2C)C[C@H](O)[C@@H]1O [Digoxin, reference compound]	–	56.5	–	–	–	–	–
CC(C)NCC(O)COc1cccc2ccccc12 (stereo not shown) [Propranolol, reference compound]	–	0.51	–	–	–	–	–
Nc1cc(-c2c(-c3ccc(F)cc3)nn3c2COCC3)ccn1 [Compound 1-49, 4-(2-(4-fluorophenyl)-6,7-dihydro-4H-pyrazolo[5,1-c][1,4]oxazin-3-yl)pyridin-2-amine]	320	–	49.5	28	104	13.3	–
CN1CCn2nc(-c3ccc(F)cc3)c(-c3ccnc(N)c3)c2C1 [Compound 1-59, 4-(2-(4-fluorophenyl)-5-methyl-4,5,6,7-tetrahydropyrazolo[1,5-a]pyrazin-3-yl)pyridin-2-amine]	39.7	1.05	9.7	143	22.2	62.3	Papp A→B at 2 h, 5 μM [4]: 22.8 ×10⁻⁶ cm/s; Papp B→A at 2 h, 5 μM [4]: 23.9 ×10⁻⁶ cm/s
CC(=O)N1CCn2nc(-c3ccc(F)cc3)c(-c3ccnc(N)c3)c2C1 [Compound 1-50, 1-(3-(2-aminopyridin-4-yl)-2-(4-fluorophenyl)-6,7-dihydropyrazolo[1,5-a]pyrazin-5(4H)-yl)ethan-1-one]	355	3.6	–	–	–	–	Papp A→B at 2 h, 5 μM [4]: 8.5 ×10⁻⁶ cm/s; Papp B→A at 2 h, 5 μM [4]: 30.8 ×10⁻⁶ cm/s
Nc1cc(-c2c(-c3ccc(F)cc3)nn3c2CCC3)ccn1 [Compound 1-57, 4-(2-(4-fluorophenyl)-5,6-dihydro-4H-pyrrolo[1,2-b]pyrazol-3-yl)pyridin-2-amine]	131	0.9	104	13.4	285	4.86	Papp A→B at 2 h, 5 μM [4]: 19.2 ×10⁻⁶ cm/s; Papp B→A at 2 h, 5 μM [4]: 17.3 ×10⁻⁶ cm/s
C[C@@H]1Cn2nc(-c3ccc(F)cc3)c(-c3ccncc3)c2CO1 [Compound 1-46, (R)-2-(4-fluorophenyl)-6-methyl-3-(pyridin-4-yl)-6,7-dihydro-4H-pyrazolo[5,1-c][1,4]oxazine]	273	–	60.1	23.1	44.9	30.9	–
Nc1cc(-c2c(-c3ccc(F)cc3)nn3c2OCC3)ccn1 [Compound 1-54, 4-(6-(4-fluorophenyl)-2,3-dihydropyrazolo[5,1-b]oxazol-7-yl)pyridin-2-amine]	800	–	–	–	–	–	–

Second part, led by results:

IC50 [3] [nM]	efflux ratio at 2 h, 5 μM [4]	microsomal CLint at 2 μM [5] [µL/min/mg]	half-life at 2 μM [5] [min]	microsomal CLint at 2 μM [6] [µL/min/mg]	half-life at 2 μM [6] [min]	SMILES	other results
7140	–	–	–	–	–	Fc1ccc(-c2nn[nH]c2-c2ccncc2)cc1 [Compound 3-7, 4-(4-(4-fluorophenyl)-1H-1,2,3-triazol-5-yl)pyridine]	relative migration (%) of cells [2]: reduced; migrated cells [2]: suppressed the migration
212	–	–	–	–	–	Cc1cn(-c2ccncc2)c(-c2ccc(F)cc2)c1C#N [Compound 2-2, 2-(4-fluorophenyl)-4-methyl-1-(pyridin-4-yl)-1H-pyrrole-3-carbonitrile]	relative migration (%) of cells [2]: reduced; migrated cells [2]: suppressed the migration
97400	–	–	–	–	–	COc1ccc(Cn2nnc(-c3ccc(F)cc3)c2-c2ccncc2)cc1 [Compound 3-8, 4-(4-(4-fluorophenyl)-1-(4-methoxybenzyl)-1H-1,2,3-triazol-5-yl)pyridine]	relative proliferation (%) of cells [1]: affected in a concentration dependent manner
168	–	7.93	175	25.2	55	Cn1cc(-c2ccnc3[nH]ncc23)c(-c2ccc(F)cc2)c1C#N [Compound 5-2, 3-(4-fluorophenyl)-1-methyl-4-(1H-pyrazolo[3,4-b]pyridin-4-yl)-1H-pyrrole-2-carbonitrile]	–
